Test results reported in patent publication US10953094B2, “Pulse photodynamic treatment of photodamaged skin” (GALDERMA RESEARCH & DEVELOPMENT, priority 2013, dated 2021).

Key:
[1] = Same daylight PDT trial, pain VAS and skin reactions 1 week after sessions; type: in vivo, human
Experimental: A double-blind randomized-controlled trial has been conducted to determine whether daylight PDT is an efficient method for treating photodamaged skin. […] Neither the investigator nor the patient knew which agent was administered, as it was applied by a trained professional nurse. To enhance product/placebo penetration a subtle abrasion with sandpaper of the whole face was performed. Also, a sunscreen (Cetaphil Dermacontrol SPF30®) was applied to the entire sun-exposed area including the treatment area in both groups during daylight-PDT, to avoid sunburn. […] Similarly, there were no statistical differences in the effects experimented by patients by patients one week after sessions, and in some of these variables no effect was found depending on each session (below table).

[2] = Pulse exposure 30 min (Method A), investigation of efficacy and inflammation; type: in vivo; details: 30 min pulse exposure vs conventional 3-hour exposure
Experimental: (§1) The formation of PPIX after 3 hours is seen in FIG. 8, and the relation to inflammation is seen in FIG. 9. […] The results are illustrated in Column 3 in FIGS. 4, 5, 6, and 7. […] Pain level is not changed.

[3] = Pulse time investigation (Method B), PPIX formation in healthy volunteers; type: in vivo, human; details: PPIX formation after 3 hours; pulse times 20, 40, 60, 180 min
Experimental: as §1
Twenty-four healthy male volunteers of Scandinavian ancestry were included in the study (mean age 30 years, range 20-51). A treatment area was selected on the inside of both forearms of the volunteer. Each treatment area was divided into four minor treatment fields of the size 2×5 cm with at least 3 cm between each field using a prefabricated flexible template. In order to imitate skin lesions all fields were tape stripped 10 times with occlusive dressing before treatment (Tegaderm™ Roll, 3M, Glostrup, Denmark). […]
All fields were covered with light-impermeable, occlusive dressing. […] During and after illumination pain was recorded. […]
5-MAL-induced PpIX fluorescence was depicted non-invasively using a fluorescence camera (Medeikonos AB, Gothenburg, Sweden). The amount of PpIX fluorescence was calculated from the photographs by the program MatLab® (MatLab®, MathWorks, Natic, US). The amount of fluorescence was measured before tape stripping and cream application (baseline) and before and after illumination.
The photo bleaching is then the difference in PpIX fluorescence (AU) calculated from the pre and post illumination images.

facial photodamage = test: Double-blind randomized-controlled trial of daylight PDT, efficacy in facial photodamage; type: in vivo, human
Experimental: A double-blind randomized-controlled trial has been conducted to determine whether daylight PDT is an efficient method for treating photodamaged skin. […] Neither the investigator nor the patient knew which agent was administered, as it was applied by a trained professional nurse. To enhance product/placebo penetration a subtle abrasion with sandpaper of the whole face was performed. Also, a sunscreen (Cetaphil Dermacontrol SPF30®) was applied to the entire sun-exposed area including the treatment area in both groups during daylight-PDT, to avoid sunburn. Efficacy was evaluated after 1 month of the third (last) daylight session.

[4] = reaction 1 week after session 1
[5] = reaction 1 week after session 2
[6] = reaction 1 week after session 3
[7] = out of 30 subjects, 1 month after third daylight session
[8] = specific photodamage severity score, 1 month after third session

COC(=O)CCC(=O)CN [Metvix, methyl aminolevulinate]
Pain VAS score, mean ([1]; after session 1): 0.80 | Pain VAS score, median ([1]; after session 1): (0) | Pain VAS score, mean ([1]; after session 2): 0.60 | Pain VAS score, median ([1]; after session 2): (0) | Pain VAS score, mean ([1]; after session 3): 1.13 | Pain VAS score, median ([1]; after session 3): (0) | Desquamation score 0, % of subjects [1, 4]: (53.3%) | Desquamation score 1, % of subjects [1, 4]: (30%) | Desquamation score 2, % of subjects [1, 4]: (16.7%) | Desquamation score 3, % of subjects [1, 4]: (0%) | Erythema score 0, % of subjects [1, 4]: (66.7%) | Erythema score 1, % of subjects [1, 4]: (26.7%) | Erythema score 2, % of subjects [1, 4]: (6.7%) | Erythema score 3, % of subjects [1, 4]: (0%) | Oedema score 0, % of subjects [1, 4]: (100%) | Oedema score 1, % of subjects [1, 4]: (0%) | Oedema score 2, % of subjects [1, 4]: (0%) | Oedema score 3, % of subjects [1, 4]: (0%) | Oozing score 0, % of subjects [1, 4]: (100%) | Oozing score 1, % of subjects [1, 4]: (0%) | Oozing score 2, % of subjects [1, 4]: (0%) | Oozing score 3, % of subjects [1, 4]: (0%) | Pigmentation score 0, % of subjects [1, 4]: (96.7) % | Pigmentation score 1, % of subjects [1, 4]: (3.3%) | Pigmentation score 2, % of subjects [1, 4]: (0%) | Pigmentation score 3, % of subjects [1, 4]: (0%) | Vesiculation score 0, % of subjects [1, 4]: (100%) | Vesiculation score 1, % of subjects [1, 4]: (0%) | Vesiculation score 2, % of subjects [1, 4]: (0%) | Vesiculation score 3, % of subjects [1, 4]: (0%) | Desquamation score 0, % of subjects [1, 5]: (50%) | Desquamation score 1, % of subjects [1, 5]: (40%) | Desquamation score 2, % of subjects [1, 5]: (10%) | Desquamation score 3, % of subjects [1, 5]: (0%) | Erythema score 0, % of subjects [1, 5]: (63.3%) | Erythema score 1, % of subjects [1, 5]: (36.7%) | Erythema score 2, % of subjects [1, 5]: (0%) | Erythema score 3, % of subjects [1, 5]: (0%) | Oedema score 0, % of subjects [1, 5]: (100%) | Oedema score 1, % of subjects [1, 5]: (0%) | Oedema score 2, % of subjects [1, 5]: (0%) | Oedema score 3, % of subjects [1, 5]: (0%) | Oozing score 0, % of subjects [1, 5]: (100%) | Oozing score 1, % of subjects [1, 5]: (0%) | Oozing score 2, % of subjects [1, 5]: (0%) | Oozing score 3, % of subjects [1, 5]: (0%) | Pigmentation score 0, % of subjects [1, 5]: (96.7%) | Pigmentation score 1, % of subjects [1, 5]: (3.3%) | Pigmentation score 2, % of subjects [1, 5]: (0%) | Pigmentation score 3, % of subjects [1, 5]: (0%) | Vesiculation score 0, % of subjects [1, 5]: (100%) | Vesiculation score 1, % of subjects [1, 5]: (0%) | Vesiculation score 2, % of subjects [1, 5]: (0%) | Vesiculation score 3, % of subjects [1, 5]: (0%) | Desquamation score 0, % of subjects [1, 6]: (50%) | Desquamation score 1, % of subjects [1, 6]: (40%) | Desquamation score 2, % of subjects [1, 6]: (10%) | Desquamation score 3, % of subjects [1, 6]: (0%) | Erythema score 0, % of subjects [1, 6]: (76.7%) | Erythema score 1, % of subjects [1, 6]: (23.3%) | Erythema score 2, % of subjects [1, 6]: (0%) | Erythema score 3, % of subjects [1, 6]: (0%) | Oedema score 0, % of subjects [1, 6]: (100%) | Oedema score 1, % of subjects [1, 6]: (0%) | Oedema score 2, % of subjects [1, 6]: (0%) | Oedema score 3, % of subjects [1, 6]: (0%) | Oozing score 0, % of subjects [1, 6]: (100%) | Oozing score 1, % of subjects [1, 6]: (0%) | Oozing score 2, % of subjects [1, 6]: (0%) | Oozing score 3, % of subjects [1, 6]: (0%) | Pigmentation score 0, % of subjects [1, 6]: (86.7%) | Pigmentation score 1, % of subjects [1, 6]: (13.3%) | Pigmentation score 2, % of subjects [1, 6]: (10%) | Pigmentation score 3, % of subjects [1, 6]: (0%) | Vesiculation score 0, % of subjects [1, 6]: (100%) | Vesiculation score 1, % of subjects [1, 6]: (0%) | Vesiculation score 2, % of subjects [1, 6]: (0%) | Vesiculation score 3, % of subjects [1, 6]: (0%) | Pain level [2]: not changed | inflammation (erythema) [2]: clearly diminishes | pulse exposure time at which PPIX concentration speeds up [3]: 20 to 40 min | facial improvement, number of subjects (facial photodamage; [7]): 14 | facial success, number of subjects (facial photodamage; [7]): 11 | Coarse lines: failure, % of subjects (facial photodamage; [8]): (30%) | Coarse lines: improvement, % of subjects (facial photodamage; [8]): (50%) | Coarse lines: sucess, % of subjects (facial photodamage; [8]): (20%) | Erythema: failure, % of subjects (facial photodamage; [8]): (20%) | Erythema: improvement, % of subjects (facial photodamage; [8]): (53.3%) | Erythema: sucess, % of subjects (facial photodamage; [8]): (26.7%) | Fine lines: failure, % of subjects (facial photodamage; [8]): (20%) | Fine lines: improvement, % of subjects (facial photodamage; [8]): (43.3%) | Fine lines: sucess, % of subjects (facial photodamage; [8]): (36.7%) | Mottled pigmentation: failure, % of subjects (facial photodamage; [8]): (23.3%) | Mottled pigmentation: improvement, % of subjects (facial photodamage; [8]): (60%) | Mottled pigmentation: sucess, % of subjects (facial photodamage; [8]): (16.7%) | Sallowness: failure, % of subjects (facial photodamage; [8]): (16.7%) | Sallowness: improvement, % of subjects (facial photodamage; [8]): (30%) | Sallowness: sucess, % of subjects (facial photodamage; [8]): (53.3%) | Tactile roughness: failure, % of subjects (facial photodamage; [8]): (16.7%) | Tactile roughness: improvement, % of subjects (facial photodamage; [8]): (20%) | Tactile roughness: sucess, % of subjects (facial photodamage; [8]): (63.3%)
